Source: patent US20240208992A1, “MACROCYCLES AS CFTR MODULATORS” (Idorsia Pharmaceuticals Ltd, priority 2021, published 2024)

Target: human F508del-CFTR (Homo sapiens, UniProt P13569, DEL508-508)
Assay: F508del-CFTR cell surface expression (corrector activity), DiscoveRx ß-galactosidase complementation chemiluminescence assay in recombinant U2OS cell line;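 also: U2OS cells co-expressing ProLink-tagged F508del-CFTR and a membrane-anchored enzyme acceptor, where more surface CFTR restores β-galactosidase activity measured by chemiluminescence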
Settings: U2OS cell line, 16h compound incubation; for EC50: EC50, F508del-CFTR cell surface expression, geomean values; for Emax: U2OS, in relation to the Emax of the corrector lumacaftor (=100%), arithmetic mean values

Chain of human F508del-CFTR (P13569 with tags, fused parts or gaps DEL508-508): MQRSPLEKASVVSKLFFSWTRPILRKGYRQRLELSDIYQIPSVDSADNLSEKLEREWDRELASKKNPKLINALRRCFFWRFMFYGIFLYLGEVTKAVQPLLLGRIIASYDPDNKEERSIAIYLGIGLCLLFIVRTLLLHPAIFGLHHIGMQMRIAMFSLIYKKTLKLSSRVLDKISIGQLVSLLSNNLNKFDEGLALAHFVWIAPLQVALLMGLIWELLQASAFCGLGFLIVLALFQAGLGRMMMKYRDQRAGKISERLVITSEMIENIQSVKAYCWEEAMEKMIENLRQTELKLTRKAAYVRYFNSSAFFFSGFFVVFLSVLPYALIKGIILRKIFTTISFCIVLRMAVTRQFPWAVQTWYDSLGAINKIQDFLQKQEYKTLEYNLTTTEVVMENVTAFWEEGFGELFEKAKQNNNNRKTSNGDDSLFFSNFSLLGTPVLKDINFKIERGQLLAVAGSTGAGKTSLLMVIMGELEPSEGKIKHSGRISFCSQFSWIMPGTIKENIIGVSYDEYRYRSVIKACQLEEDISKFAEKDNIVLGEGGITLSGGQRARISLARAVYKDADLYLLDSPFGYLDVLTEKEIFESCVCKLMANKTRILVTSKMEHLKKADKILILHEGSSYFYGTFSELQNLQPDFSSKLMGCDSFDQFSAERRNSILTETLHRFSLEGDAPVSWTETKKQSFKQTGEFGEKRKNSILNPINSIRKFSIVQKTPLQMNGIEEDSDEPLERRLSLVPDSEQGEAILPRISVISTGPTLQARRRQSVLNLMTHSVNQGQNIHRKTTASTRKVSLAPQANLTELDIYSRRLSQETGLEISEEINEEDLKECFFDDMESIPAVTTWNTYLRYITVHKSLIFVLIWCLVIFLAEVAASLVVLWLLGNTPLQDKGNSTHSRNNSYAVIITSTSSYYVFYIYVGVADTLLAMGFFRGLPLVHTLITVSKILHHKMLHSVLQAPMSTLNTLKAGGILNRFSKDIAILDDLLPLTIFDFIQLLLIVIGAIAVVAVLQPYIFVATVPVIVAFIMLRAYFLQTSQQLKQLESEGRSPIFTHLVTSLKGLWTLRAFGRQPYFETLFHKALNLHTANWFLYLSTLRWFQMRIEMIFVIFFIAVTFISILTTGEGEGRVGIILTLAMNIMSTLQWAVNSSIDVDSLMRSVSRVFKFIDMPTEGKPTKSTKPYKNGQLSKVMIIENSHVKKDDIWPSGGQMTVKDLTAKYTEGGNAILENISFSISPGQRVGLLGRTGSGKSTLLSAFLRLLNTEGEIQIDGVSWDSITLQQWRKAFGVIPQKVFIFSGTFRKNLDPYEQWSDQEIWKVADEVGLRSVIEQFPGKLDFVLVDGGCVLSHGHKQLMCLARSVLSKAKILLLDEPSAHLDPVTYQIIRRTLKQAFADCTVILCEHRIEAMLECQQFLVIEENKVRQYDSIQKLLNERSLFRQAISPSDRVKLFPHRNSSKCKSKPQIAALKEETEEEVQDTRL

## CC(C)C[C@H]1C(=O)N2CCOC[C@@H]2C(=O)N[C@H](Cc2ccccc2)COc2cnc3ccccc3c2C(=O)N[C@H](C(=O)NCCc2ccc3c(c2)OCC3)CC(=O)N1C [Example 54, (9S,13S,19aR,22R)-22-benzyl-N-(2-(2,3-dihydrobenzofuran-6-yl)ethyl)-13-isobutyl-12-methyl-7,11,14,20-tetraoxo-7,8,9,10,11,12,13,14,16,17,19,19a,20,21,22,23-hexadecahydro-[1,4]oxazino[3′,4′:6,7][1]oxa[4,7,10,14]tetraazacycloheptadecino[17,16-c]quinoline-9-carboxamide]
  EC50: 558 nM
  Emax: 373%

## CC(C)C[C@H]1C(=O)N2CCOC[C@@H]2C(=O)N[C@H](Cc2ccccc2)COc2cnc3ccccc3c2C(=O)N[C@H](C(=O)NCCc2ccc(-n3nccn3)cc2)CC(=O)N1C [Example 55, (9S,13S,19aR,22R)-N-(4-(2H-1,2,3-triazol-2-yl)phenethyl)-22-benzyl-13-isobutyl-12-methyl-7,11,14,20-tetraoxo-7,8,9,10,11,12,13,14,16,17,19,19a,20,21,22,23-hexadecahydro-[1,4]oxazino[3′,4′:6,7][1]oxa[4,7,10,14]tetraazacycloheptadecino[17,16-c]quinoline-9-carboxamide]
  EC50: 945 nM
  Emax: 245%

## CC(C)C[C@H]1C(=O)N2CCOC[C@@H]2C(=O)N[C@H](Cc2ccccc2)COc2cnc3ccccc3c2C(=O)N[C@H](C(=O)NCCc2cccc(-n3nccn3)c2)CC(=O)N1C [Example 56, (9S,13S,19aR,22R)-N-(3-(2H-1,2,3-triazol-2-yl)phenethyl)-22-benzyl-13-isobutyl-12-methyl-7,11,14,20-tetraoxo-7,8,9,10,11,12,13,14,16,17,19,19a,20,21,22,23-hexadecahydro-[1,4]oxazino[3′,4′:6,7][1]oxa[4,7,10,14]tetraazacycloheptadecino[17,16-c]quinoline-9-carboxamide]
  EC50: 764 nM
  Emax: 256%

## COc1cc(CCNC(=O)[C@@H]2CC(=O)N(C)[C@@H](CC(C)C)C(=O)N3CCOC[C@@H]3C(=O)N[C@H](Cc3ccccc3)COc3cnc4ccccc4c3C(=O)N2)cc(OC)c1 [Example 57, (9S,13S,19aR,22R)-22-benzyl-N-(3,5-dimethoxyphenethyl)-13-isobutyl-12-methyl-7,11,14,20-tetraoxo-7,8,9,10,11,12,13,14,16,17,19,19a,20,21,22,23-hexadecahydro-[1,4]oxazino[3′,4′:6,7][1]oxa[4,7,10,14]tetraazacycloheptadecino[17,16-c]quinoline-9-carboxamide]
  EC50: 414 nM
  Emax: 315%

## CC(C)C[C@H]1C(=O)N2CCOC[C@@H]2C(=O)N[C@H](Cc2ccccc2)COc2cnc3ccccc3c2C(=O)N[C@H](C(=O)NCCc2ccccc2)CC(=O)N1C [Example 58, (9S,13S,19aR,22R)-22-benzyl-13-isobutyl-12-methyl-7,11,14,20-tetraoxo-N-phenethyl-7,8,9,10,11,12,13,14,16,17,19,19a,20,21,22,23-hexadecahydro-[1,4]oxazino[3′,4′:6,7][1]oxa[4,7,10,14]tetraazacycloheptadecino[17,16-c]quinoline-9-carboxamide]
  EC50: 759 nM
  Emax: 175%

## COc1ccc(CCNC(=O)[C@@H]2CC(=O)N(C)[C@@H](CC(C)C)C(=O)N3CCOC[C@@H]3C(=O)N[C@H](Cc3ccccc3)COc3cnc4ccccc4c3C(=O)N2)c(F)c1 [Example 59, (9S,13S,19aR,22R)-22-benzyl-N-(2-fluoro-4-methoxyphenethyl)-13-isobutyl-12-methyl-7,11,14,20-tetraoxo-7,8,9,10,11,12,13,14,16,17,19,19a,20,21,22,23-hexadecahydro-[1,4]oxazino[3′,4′:6,7][1]oxa[4,7,10,14]tetraazacycloheptadecino[17,16-c]quinoline-9-carboxamide]
  EC50: 772 nM
  Emax: 237%

## Cc1ccc(CCNC(=O)[C@@H]2CC(=O)N(C)[C@@H](CC(C)C)C(=O)N3CCOC[C@@H]3C(=O)N[C@H](Cc3ccccc3)COc3cnc4ccccc4c3C(=O)N2)cc1 [Example 60, (9S,13S,19aR,22R)-22-benzyl-13-isobutyl-12-methyl-N-(4-methylphenethyl)-7,11,14,20-tetraoxo-7,8,9,10,11,12,13,14,16,17,19,19a,20,21,22,23-hexadecahydro-[1,4]oxazino[3′,4′:6,7][1]oxa[4,7,10,14]tetraazacycloheptadecino[17,16-c]quinoline-9-carboxamide]
  EC50: 662 nM
  Emax: 228%

## Cc1ccc(CCNC(=O)[C@@H]2CC(=O)N(C)[C@@H](CC(C)C)C(=O)N3CCOC[C@@H]3C(=O)N[C@H](Cc3ccccc3)COc3cnc4ccccc4c3C(=O)N2)cc1C [Example 61, (9S,13S,19aR,22R)-22-benzyl-N-(3,4-dimethylphenethyl)-13-isobutyl-12-methyl-7,11,14,20-tetraoxo-7,8,9,10,11,12,13,14,16,17,19,19a,20,21,22,23-hexadecahydro-[1,4]oxazino[3′,4′:6,7][1]oxa[4,7,10,14]tetraazacycloheptadecino[17,16-c]quinoline-9-carboxamide]
  EC50: 421 nM
  Emax: 202%

## Cc1cccc(CCNC(=O)[C@@H]2CC(=O)N(C)[C@@H](CC(C)C)C(=O)N3CCOC[C@@H]3C(=O)N[C@H](Cc3ccccc3)COc3cnc4ccccc4c3C(=O)N2)c1 [Example 62, (9S,13S,19aR,22R)-22-benzyl-13-isobutyl-12-methyl-N-(3-methylphenethyl)-7,11,14,20-tetraoxo-7,8,9,10,11,12,13,14,16,17,19,19a,20,21,22,23-hexadecahydro-[1,4]oxazino[3′,4′:6,7][1]oxa[4,7,10,14]tetraazacycloheptadecino[17,16-c]quinoline-9-carboxamide]
  EC50: 809 nM
  Emax: 222%

## Cc1ccc(CCNC(=O)[C@@H]2CC(=O)N(C)[C@@H](CC(C)C)C(=O)N3CCOC[C@@H]3C(=O)N[C@H](Cc3ccccc3)COc3cnc4ccccc4c3C(=O)N2)c(C)c1 [Example 63, (9S,13S,19aR,22R)-22-benzyl-N-(2,4-dimethylphenethyl)-13-isobutyl-12-methyl-7,11,14,20-tetraoxo-7,8,9,10,11,12,13,14,16,17,19,19a,20,21,22,23-hexadecahydro-[1,4]oxazino[3′,4′:6,7][1]oxa[4,7,10,14]tetraazacycloheptadecino[17,16-c]quinoline-9-carboxamide]
  EC50: 418 nM
  Emax: 250%

## Cc1ccccc1CCNC(=O)[C@@H]1CC(=O)N(C)[C@@H](CC(C)C)C(=O)N2CCOC[C@@H]2C(=O)N[C@H](Cc2ccccc2)COc2cnc3ccccc3c2C(=O)N1 [Example 64, (9S,13S,19aR,22R)-22-benzyl-13-isobutyl-12-methyl-N-(2-methylphenethyl)-7,11,14,20-tetraoxo-7,8,9,10,11,12,13,14,16,17,19,19a,20,21,22,23-hexadecahydro-[1,4]oxazino[3′,4′:6,7][1]oxa[4,7,10,14]tetraazacycloheptadecino[17,16-c]quinoline-9-carboxamide]
  EC50: 441 nM
  Emax: 143%

## COc1cccc(CCNC(=O)[C@@H]2CC(=O)N(C)[C@@H](CC(C)C)C(=O)N3CCOC[C@@H]3C(=O)N[C@H](Cc3ccccc3)COc3cnc4ccccc4c3C(=O)N2)c1OC [Example 65, (9S,13S,19aR,22R)-22-benzyl-N-(2,3-dimethoxyphenethyl)-13-isobutyl-12-methyl-7,11,14,20-tetraoxo-7,8,9,10,11,12,13,14,16,17,19,19a,20,21,22,23-hexadecahydro-[1,4]oxazino[3′,4′:6,7][1]oxa[4,7,10,14]tetraazacycloheptadecino[17,16-c]quinoline-9-carboxamide]
  EC50: 647 nM
  Emax: 282%

## CC(C)C[C@H]1C(=O)N2CCOC[C@@H]2C(=O)N[C@H](Cc2ccccc2)COc2cnc3ccccc3c2C(=O)N[C@H](C(=O)NCCc2cccc(F)c2)CC(=O)N1C [Example 66, (9S,13S,19aR,22R)-22-benzyl-N-(3-fluorophenethyl)-13-isobutyl-12-methyl-7,11,14,20-tetraoxo-7,8,9,10,11,12,13,14,16,17,19,19a,20,21,22,23-hexadecahydro-[1,4]oxazino[3′,4′:6,7][1]oxa[4,7,10,14]tetraazacycloheptadecino[17,16-c]quinoline-9-carboxamide]
  EC50: 587 nM
  Emax: 169%

## CC(C)C[C@H]1C(=O)N2CCOC[C@@H]2C(=O)N[C@H](Cc2ccccc2)COc2cnc3ccccc3c2C(=O)N[C@H](C(=O)NCCc2ccc(F)cc2)CC(=O)N1C [Example 67, (9S,13S,19aR,22R)-22-benzyl-N-(4-fluorophenethyl)-13-isobutyl-12-methyl-7,11,14,20-tetraoxo-7,8,9,10,11,12,13,14,16,17,19,19a,20,21,22,23-hexadecahydro-[1,4]oxazino[3′,4′:6,7][1]oxa[4,7,10,14]tetraazacycloheptadecino[17,16-c]quinoline-9-carboxamide]
  EC50: 615 nM
  Emax: 236%

## CC(C)C[C@H]1C(=O)N2CCOC[C@@H]2C(=O)N[C@H](Cc2ccccc2)COc2cnc3ccccc3c2C(=O)N[C@H](C(=O)NCCc2c(F)cccc2F)CC(=O)N1C [Example 68, (9S,13S,19aR,22R)-22-benzyl-N-(2,6-difluorophenethyl)-13-isobutyl-12-methyl-7,11,14,20-tetraoxo-7,8,9,10,11,12,13,14,16,17,19,19a,20,21,22,23-hexadecahydro-[1,4]oxazino[3′,4′:6,7][1]oxa[4,7,10,14]tetraazacycloheptadecino[17,16-c]quinoline-9-carboxamide]
  EC50: 448 nM
  Emax: 331%

## CC(C)C[C@H]1C(=O)N2CCOC[C@@H]2C(=O)N[C@H](Cc2ccccc2)COc2ccc3ccccc3c2C(=O)N[C@H](C(=O)NCCc2nc(-c3ccccc3)no2)CC(=O)N1C [Example 69, (9S,13S,19aR,22R)-22-benzyl-13-isobutyl-12-methyl-7,11,14,20-tetraoxo-N-(2-(3-phenyl-1,2,4-oxadiazol-5-yl)ethyl)-7,8,9,10,11,12,13,14,16,17,19,19a,20,21,22,23-hexadecahydro-[1,4]oxazino[3′,4′:6,7][1]oxa[4,7,10,14]tetraazacycloheptadecino[17,16-c]quinoline-9-carboxamide]
  EC50: 454 nM
  Emax: 262%
